Assay results: patent US7115641B2, “Antimicrobial oxazolidine/iodopropynyl-butyl carbamate composition containing less than 0.1wt% free formaldehyde” (ISP Investments Inc., priority 2003, dated 2006)

Experiments:
Type in all cases: cell-based
[1] = test system: Bacillus subtilis (ATCC 27328); experiment: MIC and synergy in Tryptic Soy Broth; details: TSB, 32° C., 2–3 days
Method: (§1) One hundred μl of the bacterial suspensions were added to TSB broth containing each biocide or biocide mixture to a final concentration of approximately 10^6 CFU/ml. The inoculated broth was then incubated at 32° C. for 2–3 days. For fungi MIC, 10 μl of the fungi suspensions were pipetted to the solidified Malt agar containing various concentrations of each biocide or the biocide mixture. Final concentration about 10^5 spores/ml. Plates were incubated for 10–12 days at 28° C.
(§2) The lowest concentration of each compound or mixture to inhibit visible growth at 32° C. after 2–3 days for bacteria and at 28° after 10–12 days for fungi were taken as the Minimal Inhibitory Concentration (MIC). The MIC was taken as endpoints of activity. End points for the mixture of HMBO and IPBC where then compared with the end points for the pure active compound when employed individually.
(§3) Synergism was determined by a commonly used method described by Kull, A. C., Eisman, P. C, Sylwestrowicz, H., D. and Mayer, R. L. (1961). Applied Microbiology, 9:538 using the ratio determined by: Qa/QA+Qb/QB=Synergy Index (SI).
Wherein: QA is the concentration of HMBO in parts per million (ppm), acting alone, which produced and end point. Qa is the concentration of HMBO in ppm, in the mixture, which produced and end point. […]

[2] = test system: Alternaria alternata; experiment: MIC and synergy on Malt Agar; details: 28° C., 10–12 days
Method: as §1, §2, §3
(§4) Wherein: QA is the concentration of HMBO in parts per million (ppm), acting alone, which produced and end point. Qa is the concentration of HMBO in ppm, in the mixture, which produced and end point. QB is the concentration of IPBC in ppm, acting alone, which produced an end point and Qb is the concentraton of IPBC in ppm, in the mixture, which produced an end point.
(§5) When the sum of Qa/QA+Qb/QB is greater than one, antagonism is indicated. When the sum is equal to one, additivity is indicated.

[3] = test system: Aspergillus niger (ATCC 6275); experiment: MIC and synergy on Malt Agar; details: 28° C., 10–12 days
Method: as §1, §2, §3, §4, §5

[4] = test system: mixed culture of Pseudomonas aeruginosa, Enterobacter cloacae, Bacillus subtilis, B. megaterium, B. licheniformis, Aspergillus niger and Penicillium …; experiment: Latex paint in-can preservation, ASTM D2574-94, mixed inoculum; set-up: key: 0: no growth; 4: heavy growth
Method: The efficacy of each individual compound or their combination was measured in a latex paint artificially contaminated with a mixed inoculum. The microbiological evaluations shown as examples, are based on ASTM D2574–94, “Resistance of emulsion paints in the container to the attack of microorganisms”. Briefly, paint samples (e.g. Polyvinyl Acrylic, PCL 717) were prepared to contain different concentrations of each compound or their mixtures in different concentrations and ratios. Each paint sample thus prepared was then inoculated with a mixed culture of Pseudomonas aeruginosa, Enterobacter cloacae, Bacillus subtilis, B. megaterium, B. licheniformis, Aspergillus niger and Penicillium funiculosum (final concentration of about 10^6 CFU/ml) and re-challenged after 7 days (final concentration of about 10^7 CFU/ml). Paint samples were incubated at 32° C. for the duration of the test and sampled for the presence of viable bacteria on TSA and M plates. Growth was rated on a scale from “0” (no growth) to “4” (heavy growth). A paint sample was considered appropriately preserved if no bacterial growth (“0” rating) was detected after six days incubation in both challenge assays.
The table summarizes the results obtained when mixtures of the low formaldehyde hydroxymethyl oxazolidine (HMBO) (compound A) and IPBC (compound B) in PEG-400 were tested.

CCCCNC(=O)OCC#CI [compound B, iodopropynyl butyl carbamate]
2: Growth rating MALT Plates CI 3 ([4]; B alone 120 ppm) | Growth rating TSA plates CI 2 ([4]; B alone 120 ppm) | Growth rating MALT Plates CI 2 ([4]; B alone 200 ppm) | Growth rating TSA plates CI 2 ([4]; B alone 200 ppm)
0.50 ppm: Minimal Inhibitory Concentration (MIC), acting alone [2]
1: Growth rating MALT Plates CI 2 ([4]; B alone 60 ppm) | Growth rating TSA plates CI 3 ([4]; B alone 60 ppm) | Growth rating MALT Plates CI 3 ([4]; B alone 200 ppm)
4: Growth rating MALT Plates CII 1 ([4]; B alone 60 ppm) | Growth rating MALT Plates CII 2 ([4]; B alone 60 ppm) | Growth rating MALT Plates CII 3 ([4]; B alone 60 ppm) | Growth rating MALT Plates CII 6 ([4]; B alone 60 ppm) | Growth rating TSA plates CII 1 ([4]; B alone 60 ppm) | Growth rating TSA plates CII 2 ([4]; B alone 60 ppm) | Growth rating TSA plates CII 3 ([4]; B alone 60 ppm) | Growth rating MALT Plates CI 1 ([4]; B alone 120 ppm) | Growth rating MALT Plates CI 2 ([4]; B alone 120 ppm) | Growth rating MALT Plates CII 1 ([4]; B alone 120 ppm) | Growth rating MALT Plates CII 2 ([4]; B alone 120 ppm) | Growth rating MALT Plates CII 3 ([4]; B alone 120 ppm) | Growth rating MALT Plates CII 6 ([4]; B alone 120 ppm) | Growth rating TSA plates CI 1 ([4]; B alone 120 ppm) | Growth rating TSA plates CII 1 ([4]; B alone 120 ppm) | Growth rating MALT Plates CI 1 ([4]; B alone 200 ppm) | Growth rating MALT Plates CII 1 ([4]; B alone 200 ppm) | Growth rating MALT Plates CII 2 ([4]; B alone 200 ppm) | Growth rating MALT Plates CII 3 ([4]; B alone 200 ppm) | Growth rating MALT Plates CII 6 ([4]; B alone 200 ppm) | Growth rating TSA plates CI 1 ([4]; B alone 200 ppm) | Growth rating TSA plates CII 1 ([4]; B alone 200 ppm)
62.5 ppm: Minimal Inhibitory Concentration (MIC), acting alone [1]
0.25 ppm: Minimal Inhibitory Concentration (MIC), acting alone [3]
3: Growth rating TSA plates CII 6 ([4]; B alone 60 ppm) | Growth rating TSA plates CII 2 ([4]; B alone 120 ppm) | Growth rating TSA plates CII 3 ([4]; B alone 120 ppm) | Growth rating TSA plates CII 6 ([4]; B alone 120 ppm) | Growth rating TSA plates CII 2 ([4]; B alone 200 ppm) | Growth rating TSA plates CII 3 ([4]; B alone 200 ppm) | Growth rating TSA plates CII 6 ([4]; B alone 200 ppm)
0: Growth rating MALT Plates CI 1 ([4]; B alone 60 ppm) | Growth rating MALT Plates CI 3 ([4]; B alone 60 ppm) | Growth rating MALT Plates CI 6 ([4]; B alone 60 ppm) | Growth rating TSA plates CI 1 ([4]; B alone 60 ppm) | Growth rating TSA plates CI 2 ([4]; B alone 60 ppm) | Growth rating TSA plates CI 6 ([4]; B alone 60 ppm) | Growth rating MALT Plates CI 6 ([4]; B alone 120 ppm) | Growth rating TSA plates CI 3 ([4]; B alone 120 ppm) | Growth rating TSA plates CI 6 ([4]; B alone 120 ppm) | Growth rating MALT Plates CI 6 ([4]; B alone 200 ppm) | Growth rating TSA plates CI 3 ([4]; B alone 200 ppm) | Growth rating TSA plates CI 6 ([4]; B alone 200 ppm)

OCC12COCN1COC2 [compound A, hydroxymethyl bicyclic oxazolidine]
250 ppm: Minimal Inhibitory Concentration (MIC), acting alone [1] | Minimal Inhibitory Concentration (MIC), acting alone [2]
1: Growth rating TSA plates CII 1 ([4]; A alone 500 ppm) | Growth rating TSA plates CII 2 ([4]; A alone 500 ppm) | Growth rating TSA plates CII 3 ([4]; A alone 500 ppm) | Growth rating TSA plates CII 6 ([4]; A alone 500 ppm) | Growth rating MALT Plates CII 2 ([4]; A alone 520 ppm) | Growth rating MALT Plates CII 3 ([4]; A alone 520 ppm) | Growth rating TSA plates CII 3 ([4]; A alone 520 ppm)
0: Growth rating MALT Plates CI 1 ([4]; A alone 500 ppm) | Growth rating MALT Plates CI 2 ([4]; A alone 500 ppm) | Growth rating MALT Plates CI 3 ([4]; A alone 500 ppm) | Growth rating MALT Plates CI 6 ([4]; A alone 500 ppm) | Growth rating MALT Plates CII 1 ([4]; A alone 500 ppm) | Growth rating MALT Plates CII 2 ([4]; A alone 500 ppm) | Growth rating MALT Plates CII 3 ([4]; A alone 500 ppm) | Growth rating MALT Plates CII 6 ([4]; A alone 500 ppm) | Growth rating TSA plates CI 1 ([4]; A alone 500 ppm) | Growth rating TSA plates CI 2 ([4]; A alone 500 ppm) | Growth rating TSA plates CI 3 ([4]; A alone 500 ppm) | Growth rating TSA plates CI 6 ([4]; A alone 500 ppm) | Growth rating MALT Plates CI 1 ([4]; A alone 520 ppm) | Growth rating MALT Plates CI 2 ([4]; A alone 520 ppm) | Growth rating MALT Plates CI 3 ([4]; A alone 520 ppm) | Growth rating MALT Plates CI 6 ([4]; A alone 520 ppm) | Growth rating MALT Plates CII 1 ([4]; A alone 520 ppm) | Growth rating MALT Plates CII 6 ([4]; A alone 520 ppm) | Growth rating TSA plates CI 1 ([4]; A alone 520 ppm) | Growth rating TSA plates CI 2 ([4]; A alone 520 ppm) | Growth rating TSA plates CI 3 ([4]; A alone 520 ppm) | Growth rating TSA plates CI 6 ([4]; A alone 520 ppm) | Growth rating TSA plates CII 1 ([4]; A alone 520 ppm) | Growth rating TSA plates CII 2 ([4]; A alone 520 ppm) | Growth rating TSA plates CII 6 ([4]; A alone 520 ppm)
1,000 ppm: Minimal Inhibitory Concentration (MIC), acting alone [3]
